Reference: patent US6124337A, “Methods and formulations for modulating the human sexual response” (priority 1999, dated 2000)
Structures can show the parent of a compound that is named as a salt.

How the values were obtained:
male erectile ability = experiment: Single blind trial of rapidly dissolving oral formulation on male erectile ability; assay type: in vivo, human; settings: 40 mg dose
Method: In order to test the ability of a rapidly dissolving oral formulation of phentolamine mesylate on erectile ability, a single blind trial was conducted.
All patients had impotence of organic etiology. Patients were selected for inclusion in the trial based medical history and physical examination with a duration of impotence of less than 3-4 years. Each patient was given two tablets: a rapidly dissolving tablet containing 40 mg of phentolamine mesylate (see Table 1), and a placebo tablet lacking phentolamine mesylate.
Patients were asked to take one tablet 20 to 30 minutes before attempting coitus. One or more days after using the first tablet, the patients repeated the process with the second tablet.
Patients were advised not to consume alcohol prior to using the tablets and were told not to expect erection without sexual stimulation. […] Patients were also asked to report side effects.

impotentia erectionis = settings: buccal, 100 I.U. three times a day for 14 days; cited from earlier work

SMILES | Success in improving erectile ability (male erectile ability) | Patients with improvement of impotentia erectionis (impotentia erectionis)
Cc1ccc(N(CC2=NCCN2)c2cccc(O)c2)cc1 [phentolamine mesylate] | significant success | 
CC[C@H](C)[C@@H]1NC(=O)[C@H](Cc2ccc(O)cc2)NC(=O)[C@@H](N)CSSC[C@@H](C(=O)N2CCC[C@H]2C(=O)N[C@@H](CC(C)C)C(=O)NCC(N)=O)NC(=O)[C@H](CC(N)=O)NC(=O)[C@H](CCC(N)=O)NC1=O [oxytocin] |  | 12 of the 16
